Data from publication PMC11866022, “Long-Chain Cyclic Arylguanidines as Multifunctional Serotonin Receptor Ligands with Antiproliferative Activity” (ACS Omega, 2025).
Values joined by “and” are separate entries in the source; they are usually repeats but may differ in a detail not shown here. Identical values can stand only once. Like-named read-outs stand apart in the source and are kept apart here.

Key:
[1] = calibration standards, assigned values, no reference given; cited from earlier work
[2] = calibration standards, assigned values, no reference given; cited from earlier work; remark: listed apart in the source
[3] = test system: U-251 glioblastoma cells; test: Antiproliferative activity (MTS), U-251; type: cell-based, human; conditions: MTS assay, 72 h
Procedure: (§1) These cell lines were characterized by different mutation profiles, the main one being the variable status of the p53 protein. In detail, U87MG cells have a wild-type p53 protein, while astrocytoma and the rest of GBM cells harbor mutated p53 protein. Additional assays were performed on MCF7 breast cancer and AsPC-1 pancreatic cancer cells. The wide range of tested lines was aimed at screening the anticancer potential of the tested compounds. The first represents one of the most common and the second one of the most aggressive cancers in the world. Comparing the activity of compounds on GBM cells to other types of cancer may reveal their selectivity and usefulness in targeted therapies. The cytotoxicity of the compounds on normal human astrocytes (NHA) and Feline catus astrocyte (PG-4) was determined. Tests on normal lines serve to verify the potential toxicity of the tested compounds on healthy cells. Due to the targeting of CNS tumors, astrocytes were selected as normal lines.
(§2) The detailed procedure is presented in previous publications.[53] […] Cells were cultured in appropriate media, supplemented with FBS, antibiotics, and other supplements, and incubated at 37 °C with 5% CO2. […] Cell viability was assessed using the MTS assay, and the inhibitory concentration (IC50) was calculated using GraphPad Prism 8.0. Each compound was tested in triplicate across multiple experiments.

[4] = test system: LN-229 glioblastoma cells; test: Antiproliferative activity (MTS), LN-229; type: cell-based, human; conditions: MTS assay, 72 h
Procedure: as §1, §2

[5] = test system: normal human astrocytes (NHA); test: Cytotoxicity (MTS), normal human astrocytes; type: cell-based; conditions: 72 h, normal human astrocytes, MTS assay
Procedure: as §1, with “The chosen group of ligands was further examined for their ability to inhibit proliferation across multiple cancer cell lines related to the CNS system (1321N1, U87MG, LN-229, and U-251). These” for “These”
(§3) The detailed procedure is presented in previous publications.[53] Briefly, the study utilized various human cancer and normal cell lines, including LN-229 (glioblastoma), MCF7 (breast carcinoma), HepG2 (hepatoma), U-251 (glioblastoma), U87MG (glioblastoma), AsPC-1 (pancreatic adenocarcinoma), and NHA (normal human astrocytes). Cells were cultured in appropriate media, supplemented with FBS, antibiotics, and other supplements, and incubated at 37 °C with 5% CO2. Compounds were dissolved in DMSO, prepared at various concentrations (1–25 μM), and applied to the cells for 72 h. Cell viability was assessed using the MTS assay, and the inhibitory concentration (IC50) was calculated using GraphPad Prism 8.0. Each compound was tested in triplicate across multiple experiments.

[6] = target: T1, 5-HT6 (Homo sapiens, UniProt P50406); test: Radioligand binding assay, 5-HT6 ([3H]-LSD); conditions: HEK293 cell line with human 5-HT6R; 2 nM [3H]-LSD
T1 construct: expressed in transfected cells; host or cells: HEK293
T1 sequence (P50406 whole entry): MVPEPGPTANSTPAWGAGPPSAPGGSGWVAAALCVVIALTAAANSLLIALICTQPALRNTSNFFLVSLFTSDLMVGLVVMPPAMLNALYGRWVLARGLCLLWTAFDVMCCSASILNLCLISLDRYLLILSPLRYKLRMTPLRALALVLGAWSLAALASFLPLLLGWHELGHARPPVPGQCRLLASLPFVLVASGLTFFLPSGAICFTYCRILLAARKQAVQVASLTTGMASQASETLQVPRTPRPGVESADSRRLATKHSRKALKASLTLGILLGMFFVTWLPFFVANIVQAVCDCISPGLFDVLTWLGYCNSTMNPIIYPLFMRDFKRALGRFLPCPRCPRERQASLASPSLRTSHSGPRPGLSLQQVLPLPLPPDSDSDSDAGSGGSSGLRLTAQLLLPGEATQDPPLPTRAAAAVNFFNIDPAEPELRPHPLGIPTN
Procedure: Ligand affinity for 5-HT6 receptors was subsequently tested with a radioligand binding assay, using the HEK293 cell line with human 5-HT6R, aiming to select compounds with the strongest affinity. Three compounds belonging to 2-naphthalenesulfonamide derivatives of 3,4-dihydroquinazolin-2-amines were obtained (Table 1).
The detailed procedure is presented in previous publications.[53] Assays were performed by incubating for 1 h at 37 °C (room temperature for 5-HT1A) in 200 μL volumes on 96-well plates. The reaction was terminated by rapid filtration using Unifilter plates, and radioactivity on the filters was measured with a PerkinElmer Microbeta plate reader. Radioligands used were:
Eight concentrations (10^–4 to 10^–11 M) were tested in triplicate for each compound. Inhibition constants (Ki) were calculated using the Cheng–Prusoff equation.[54] The results are expressed as the means of at least two independent experiments.

[7] = target: T2, human serum albumin (HSA) (Homo sapiens, UniProt P02768); test: HSA binding by biochromatography (HSA column); type: in vitro ADME
T2 construct: purchased
T2 sequence (P02768 25-609): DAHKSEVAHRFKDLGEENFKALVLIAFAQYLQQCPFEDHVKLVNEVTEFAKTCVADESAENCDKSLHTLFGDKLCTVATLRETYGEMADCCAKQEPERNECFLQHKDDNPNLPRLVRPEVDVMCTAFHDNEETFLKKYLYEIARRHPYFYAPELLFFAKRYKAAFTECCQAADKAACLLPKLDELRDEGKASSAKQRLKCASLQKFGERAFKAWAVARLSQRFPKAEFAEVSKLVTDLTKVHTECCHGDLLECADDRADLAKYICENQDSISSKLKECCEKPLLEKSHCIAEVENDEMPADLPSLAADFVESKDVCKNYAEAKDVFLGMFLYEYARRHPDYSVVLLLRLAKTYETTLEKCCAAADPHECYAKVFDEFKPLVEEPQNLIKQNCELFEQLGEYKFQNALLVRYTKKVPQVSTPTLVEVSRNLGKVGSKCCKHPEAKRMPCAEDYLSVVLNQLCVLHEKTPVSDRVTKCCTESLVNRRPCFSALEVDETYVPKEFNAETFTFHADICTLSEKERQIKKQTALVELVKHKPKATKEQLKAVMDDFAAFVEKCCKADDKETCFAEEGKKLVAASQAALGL
Procedure: (§4) Lipophilicity and affinity for phospholipids for each investigated molecule were assessed. Additionally, selected compounds with the highest biological activities have been characterized by their affinity plasma proteins. All experiments were performed using protocols developed by Valko.[35] These methods facilitated the calculation of chromatographic hydrophobicity indices (CHI) and plasma protein binding percentages (%PPB) in a biochromatographic experiment, with results compared to the reference. A detailed description of the experiments is provided in the Supporting Information (SI), along with the raw data. […] Although high lipophilicity may limit the medical use of the analyzed compounds since they may tend to accumulate excessively in the human body, it is remarkable that several clinically used drugs also have high lipophilicity. […] (Table 5).
(§5) The detailed procedure is presented in previous publications.[53] High-performance liquid chromatography (HPLC) analyses were conducted using the Prominence-1 LC-2030C 3D system (Shimadzu) with a DAD detector, employing three different chromatographic columns with specific stationary phases and mobile phases. The analysis was performed at 30 °C with a flow rate of 1.5 mL/min for IAM and C18 columns, and 0.9 mL/min for the Chiralpak column. Calibration standards for the columns were sourced from various suppliers and dissolved in dimethyl sulfoxide. Detection occurred in the UV range (190–300 nm) with a 5 μL injection volume. Each compound was analyzed in triplicate. Retention times for the tested compounds and calibration standards are provided in the Supporting Information (Tables S1 and S2).

[8] = test system: AsPC-1 pancreatic cancer cells; test: Antiproliferative activity (MTS), AsPC-1; type: cell-based, human; conditions: MTS assay, 72 h
Procedure: as §1, with “The chosen group of ligands was further examined for their ability to inhibit proliferation across multiple cancer cell lines related to the CNS system (1321N1, U87MG, LN-229, and U-251). These” for “These”
as §3

[9] = test system: U87MG glioblastoma cells; test: Antiproliferative activity (MTS), U87MG; type: cell-based, human; conditions: MTS assay
Procedure: as §1, §2
Supplementary materials - Biological research
B) U87MG glioblastoma multiforme line.
and U87MG glioblastoma multiforme line for C) PP 3; D) PP 6; E) PP 8; F) PP 10; G) PP 11; H) PP

[10] = Metabolic stability in mouse liver microsomes; type: in vitro ADME; conditions: MLMs, 120 min
Source text: Moving on to the next parameter, which is metabolism, we determined metabolic stability, using mouse liver microsomes (MLMs). […]
Main metabolic pathways are marked in red.

[11] = test system: MCF7 breast cancer cells; test: Antiproliferative activity (MTS), MCF7; type: cell-based, human; conditions: MTS assay, 72 h
Procedure: as §1, §2

[12] = test system: 1321N1 astrocytoma cells; test: Antiproliferative activity (MTS), 1321N1; type: cell-based, human; conditions: MTS assay
Procedure: as §1, §2
Supplementary materials - Biological research […]

[13] = Lipophilicity, chromatographic hydrophobicity index on C18 (Valko protocol); type: physicochemical
Procedure: as §4, §5

[14] = Affinity to phospholipids, CHI IAM (Valko protocol); type: physicochemical; conditions: IAM column
Procedure: as §4, §5

[15] = test system: HSA and AGP (24:1); test: in vitro; conditions: human, plasma
[16] = test system: HSA and AGP in a ratio 24:1; conditions: human

Compound: CC(=O)c1ccccc1 [Acetophenone]
- CHI IAM of the calibration set [1]: 17.2
- CHI C18 at pH 2.6 of the calibration set [2]: 64.1

Compound: CN(C)C/C=C/C(=O)Nc1cc2c(Nc3ccc(F)c(Cl)c3)ncnc2cc1O[C@H]1CCOC1 [Afatinib, reference compound]
- IC50 ([3]; Homo sapiens, U-251): 27 µM
- IC50 ([4]; Homo sapiens, LN-229): 9.8 µM
- IC50 ([5]; Homo sapiens, Astrocyte): 7.5 µM

Compound: c1ccc2[nH]cnc2c1 [Benzimidazole]
- CHI C18 at pH 2.6 of the calibration set [2]: 6.3

Compound: CCCC(=O)c1ccccc1 [Butyrophenone]
- CHI IAM of the calibration set [1]: 32
- CHI C18 at pH 2.6 of the calibration set [2]: 87.3

Compound: COc1cc2c(c(OC)c1OC)-c1ccc(OC)c(=O)cc1[C@@H](NC(C)=O)CC2 [Colichicine]
- CHI C18 at pH 2.6 of the calibration set [2]: 43.9

Compound: c1ccc2[nH]ccc2c1 [Indole]
- CHI C18 at pH 2.6 of the calibration set [2]: 72.1

Compound: CC1NC(NCCCCCCNS(=O)(=O)c2cccc3ccccc23)=Nc2cccc(F)c21 (centres unmarked) [PP 11, N-{6-[(5-Fluoro-4-methyl-3,4-dihydroquinazolin-2-yl)amino]hexyl}naphthalene-1-sulfonamide]
- Ki [6]: 0.222 ± 0.056 µM
- %HSA ([7]; HSA column): 99.2%
- logKHSA ([7]; HSA column): 1.75 and 1.8
- IC50 ([3]; Homo sapiens, U-251): 12.2 ± 0.3 µM
- IC50 ([8]; Homo sapiens, ASPC1): 13.8 ± 0.3 µM
- IC50 ([9]; Homo sapiens, U-87 MG): 8.5 ± 0.7 µM
- main metabolic pathway [10]: double hydroxylation and double bond reduction
- metabolic stability, % of remaining [10]: 74.22%
- IC50 ([4]; Homo sapiens, LN-229): > 25 µM
- IC50 ([11]; Homo sapiens, MCF7): 9.1 ± 0.8 µM
- IC50 ([12]; Homo sapiens, 1321-N1): 5.7 ± 0.1 µM
- IC50 ([5]; Homo sapiens, Astrocyte): 4.5 µM
- IC50 [5]: 4.4 ± 1.3 µM
- CHI C18 pH 2.6 [13]: 103.4
- CHI C18 pH 7.4 [13]: 103.1
- CHI C18 pH 10.5 [13]: 93.1
- CHI IAM [14]: 60.1

Compound: CCC(=O)c1ccccc1 [Propiophenone]
- CHI IAM of the calibration set [1]: 25.9
- CHI C18 at pH 2.6 of the calibration set [2]: 77.4

Compound: Cn1c(=O)c2[nH]cnc2n(C)c1=O [Theophylline]
- CHI C18 at pH 2.6 of the calibration set [2]: 17.9

Compound: CCCCC(=O)c1ccccc1 [Valerophenone]
- CHI IAM of the calibration set [1]: 37.3
- CHI C18 at pH 2.6 of the calibration set [2]: 96.4

Compound: CC(=O)CC(c1ccccc1)c1c(O)c2ccccc2oc1=O (centres unmarked) [Warfarin]
- fraction unbound [15]: 0.015
- PPB kD [16]: 9.5 µM

Compound: N-{2-[4-(1,2-Benzothiazol-3-yl)piperazin-1-yl]ethyl}-1,2-dihydroquinazolin-2-amine [PP 21]
- Ki [6]: 0.605 ± 0.151 µM
- IC50 [3]: 13 ± 0.4 µM
- IC50 [8]: 7.4 ± 0.5 µM
- IC50 [4]: 9.9 ± 0.7 µM
- IC50 [11]: > 25 µM
- IC50 [5]: 4.7 ± 0.2 µM

Compound: N-{2-[4-(1-Benzothiophen-4-yl)piperazin-1-yl]ethyl}-1,2-dihydroquinazolin-2-amine [PP 22]
- Ki [6]: 0.278 ± 0.07 µM
- %HSA [7]: 98.4%
- IC50 [3]: 4.3 ± 0.6 µM
- IC50 [8]: 12.5 ± 0.4 µM
- IC50 [9]: 13.8 ± 0.9 µM
- IC50 [4]: > 25 µM
- IC50 [11]: 14.5 ± 0.2 µM
- IC50 [12]: 10.4 ± 0.6 µM
- IC50 [5]: 8.1 ± 0.2 µM
- CHI C18 pH 2.6 [13]: 56.4
- CHI C18 pH 7.4 [13]: 115.8
- CHI C18 pH 10.5 [13]: 168.7
- CHI IAM [14]: 56.4
